Patent US9469615B2, “Quinoxalines and AZA-quinoxalines as CRTH2 receptor modulators” (Merck Sharp & Dohme Corp., priority 2010, dated 2016)

These molecules were tested against T1, hCRTH2 (Homo sapiens, UniProt Q9Y5Y4) (assay: Radioligand binding assay ([3H]PGD2 competition, HEK-hCRTH2 membranes)). Details: [3H]PGD2 binding, rated A-E (Table A).
T1 construct: expressed in transfected cells; host or cells: HEK (human embryonic kidney) cells expressing hCRTH2; membrane preparation
T1 sequence (Q9Y5Y4 1-395): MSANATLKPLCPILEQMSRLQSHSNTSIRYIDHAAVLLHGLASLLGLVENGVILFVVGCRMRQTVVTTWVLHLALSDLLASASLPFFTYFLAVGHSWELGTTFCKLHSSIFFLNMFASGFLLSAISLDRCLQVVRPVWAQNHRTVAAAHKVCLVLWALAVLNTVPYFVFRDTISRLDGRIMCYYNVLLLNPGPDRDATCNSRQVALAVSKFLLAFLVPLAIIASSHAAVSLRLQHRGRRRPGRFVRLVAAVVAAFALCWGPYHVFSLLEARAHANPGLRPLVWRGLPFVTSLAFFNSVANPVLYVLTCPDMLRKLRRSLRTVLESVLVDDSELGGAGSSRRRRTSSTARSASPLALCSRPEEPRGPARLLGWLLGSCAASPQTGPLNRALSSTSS
Summary of the method: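 Competition against 3.0 nM [3H]PGD2 was run for 60 min at room temperature in pH 7.4 Tris-HCl buffer with EDTA, 2 mM MnCl2 and 1% DMSO, using 8-20 μg HEK-hCRTH2 membrane protein. 10 μM PGD2 set non-specific binding; filter-bound counts were read by scintillation.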
`C[C@@H](NC(=O)c1ccc2nc(-c3ccc(Cl)cc3)c(CCCCC(=O)O)nc2c1)c1cccc(F)c1` [compound 178, 3-(4-chlorophenyl)-7-[[[1(R)-(3-fluorophenyl)ethyl]amino]carbonyl]-2-quinoxalinepentanoic acid] gave a Ki of 0.1 to 2 nM.
Work on `C[C@H](NC(=O)c1ccc2nc(-c3ccc(Cl)cc3)c(CCCCC(=O)O)nc2c1)c1cccc(F)c1` [compound 179, 3-(4-chlorophenyl)-7-[[[1(S)-(3-fluorophenyl)ethyl]amino]carbony!]-2-quinoxalinepentanoic acid] yielded a Ki of 0.1 to 2 nM.
`C[C@@H](NC(=O)c1ccc2nc(-c3ccc(Cl)cc3)c(CCCCC(=O)O)nc2c1)c1cccc(Cl)c1` [compound 180, 3-(4-chlorophenyl)-7-[[[1(R)-(3-chlorophenyl)ethyl]amino]carbonyl]-2-quinoxalinepentanoic acid] gave a Ki of 0.1 to 2 nM.
Work on `C[C@H](NC(=O)c1ccc2nc(-c3ccc(Cl)cc3)c(CCCCC(=O)O)nc2c1)c1cccc(Cl)c1` [compound 181, 3-(4-chlorophenyl)-7-[[[1(S)-(3-chlorophenyl)ethyl]amino]carbonyl]-2-quinoxalinepentanoic acid] yielded a Ki of 0.1 to 2 nM.
Work on `C[C@@H](NC(=O)c1ccc2nc(-c3ccc(Cl)cc3)c(CCCCC(=O)O)nc2c1)c1cccnc1` [compound 182, 3-(4-chlorophenyl)-7-[[[1(R)-(3-pyridinyl)ethyl]amino]carbonyl]-2-quinoxalinepentanoic acid] yielded a Ki of 2.1 to 20 nM.
In the case of `C[C@H](NC(=O)c1ccc2nc(-c3ccc(Cl)cc3)c(CCCCC(=O)O)nc2c1)c1cccnc1` [compound 183], the Ki is reported as 2.1 to 20 nM.
With `O=C(O)CCCCc1nc2cc(C(=O)N[C@@H]3CCCc4cc(F)ccc43)ccc2nc1-c1ccc(Cl)cc1` [compound 184, 3-(4-chlorophenyl)-7-[[(6-fluoro-1,2,3,4-tetrahydro-1(R)-naphthalenyl)amino]carbonyl]-2-quinoxalinepentanoic acid] the Ki was 0.1 to 2 nM.
For `O=C(O)CCCCc1nc2cc(C(=O)N[C@H]3CCCc4cc(F)ccc43)ccc2nc1-c1ccc(Cl)cc1` [compound 185, 3-(4-chlorophenyl)-7-[[(6-fluoro-1,2,3,4-tetrahydro-1(S)-naphthalenyl)amino]carbonyl]2-quinoxalinepentanoic acid], the Ki was 2.1 to 20 nM.
With `O=C(O)CCCCc1nc2cc(C(=O)N[C@@H]3CCCc4cc(Cl)ccc43)ccc2nc1-c1ccc(Cl)cc1` [compound 186, 3-(4-chlorophenyl)-7-[[(6-chloro-1,2,3,4-tetrahydro-1(R)-naphthalenyl)amino]carbonyl]-2-quinoxalinepentanoic acid] the Ki was 0.1 to 2 nM.
`O=C(O)CCCCc1nc2cc(C(=O)N[C@H]3CCCc4cc(Cl)ccc43)ccc2nc1-c1ccc(Cl)cc1` [compound 187, 3-(4-chlorophenyl)-7-[[(6-chloro-1,2,3,4-tetrahydro-1(S)-naphthalenyl)amino]carbonyl]-2-quinoxalinepentanoic acid] showed a Ki of 2.1 to 20 nM.
`O=C(O)CCCCc1nc2cc(C(=O)N3CCN(c4ccc(F)cc4)CC3)ccc2nc1-c1ccc(Cl)cc1` [compound 189, 3-(4-chlorophenyl)-7-[[4-(4-fluorophenyl)-1-piperazinyl]carbonyl]-2-quinoxalinepentanoic acid] showed a Ki of 0.1 to 2 nM.
With `O=C(O)CCCCc1nc2cc(C(=O)N3CCN(c4ccccc4F)CC3)ccc2nc1-c1ccc(Cl)cc1` [compound 190, 3-(4-chlorophenyl)-7-[[4-(2-fluorophenyl)-1-piperazinyl]carbonyl]-2-quinoxalinepentanoic acid] the Ki was 0.1 to 2 nM.
In the case of `O=C(O)CCCCc1nc2cc(C(=O)N3CCN(c4ccc(Cl)cc4)CC3)ccc2nc1-c1ccc(Cl)cc1` [compound 191, 3-(4-chlorophenyl)-7-[[4-(4-chlorophenyl)-1-piperazinyl]carbonyl]-2-quinoxalinepentanoic acid], the Ki is reported as 0.1 to 2 nM.
Work on `O=C(O)Cc1cccc(CCc2nc3cc(C(=O)NCc4cccc(F)c4)ccc3nc2-c2ccc(F)cc2)c1` [compound 192, 3-[2-[3-(4-fluorophenyl)-7-[[[(3-fluorophenyl)methyl]amino]carbonyl]-2-quinoxalinyl]ethyl]benzencacetic acid] yielded a Ki of 2.1 to 20 nM.
`O=C(O)Cc1cccc(CCc2nc3cc(C(=O)NCc4ccc(F)cc4)ccc3nc2-c2ccc(F)cc2)c1` [compound 193, 3-[2-[3-(4-fluorophenyl)-7-[[[(4-fluorophenyl)methyl]amino]carbonyl]-2-quinoxalinyl]ethyl] benzeneacetic acid] showed a Ki of 2.1 to 20 nM.
`N#Cc1ccc(CNC(=O)c2ccc3nc(-c4ccc(F)cc4)c(CCc4cccc(CC(=O)O)c4)nc3c2)cc1` [compound 194] showed a Ki of 20.1 to 200 nM.
Work on `C[C@@H](NC(=O)c1ccc2nc(-c3ccc(F)cc3)c(CCc3cccc(CC(=O)O)c3)nc2c1)c1ccc(F)cc1` [compound 195, 3-[2-[3-(4-fluorophenyl)-7-[[[1(R)-(4-fluorophenyl)ethyl]amino]carbonyl]-2-quinoxalinyl]ethyl] benzeneacetic acid] yielded a Ki of 20.1 to 200 nM.
With `C[C@H](NC(=O)c1ccc2nc(-c3ccc(F)cc3)c(CCc3cccc(CC(=O)O)c3)nc2c1)c1ccc(F)cc1` [compound 196] the Ki was 20.1 to 200 nM.
Molecule `O=C(O)Cc1cccc(CCc2nc3cc(C(=O)N[C@@H](CCO)c4ccccc4)ccc3nc2-c2ccc(F)cc2)c1` [compound 197, 3-[2-[3-(4-fluorophenyl)-7-[[(3-hydroxy-1(S)-phenylpropyl)amino]carbonyl]-2-quinoxalinyl]ethyl] benzeneacetic acid] has a Ki of 201 to 700 nM.
For `O=C(O)Cc1cccc(CCc2nc3cc(C(=O)N4CCC(c5ccccc5)CC4)ccc3nc2-c2ccc(F)cc2)c1` [compound 198, 3-[2-[3-(4-fluorophenyl)-7-[(4-phenyl-1-piperidinyl)carbonyl]-2-quinoxalinyl]ethyl] benzeneacetic acid], the Ki was 2.1 to 20 nM.
With `O=C(O)Cc1cccc(CCc2nc3cc(C(=O)N4CCN(c5ccccc5)CC4)ccc3nc2-c2ccc(F)cc2)c1` [compound 199, 3-[2-[3-(4-fluorophenyl)-7-[(4-phenyl-1-piperazinyl)carbonyl]-2-quinoxalinyl]ethyl] benzeneacetic acid] the Ki was 2.1 to 20 nM.
Molecule `O=C(O)Cc1cccc(CCc2nc3cc(C(=O)N4CC(c5ccccc5)C4)ccc3nc2-c2ccc(F)cc2)c1` [compound 200, 3-[2-[3-(4-fluorophenyl)-7-[(3-phenyl-1-azetidinyl)carbonyl]-2-quinoxalinyl]ethyl] benzeneacetic acid] has a Ki of 2.1 to 20 nM.
For `CN(Cc1cccc(F)c1)C(=O)c1ccc2nc(-c3ccc(F)cc3)c(CCc3cccc(CC(=O)O)c3)nc2c1` [compound 201], the Ki was 0.1 to 2 nM.
For `CN(Cc1ccccc1)C(=O)c1ccc2nc(-c3ccc(F)cc3)c(CCc3cccc(CC(=O)O)c3)nc2c1` [compound 202, 3-[2-[3-(4-fluorophenyl)-7-[[methyl(phenylmethyl)amino]carbonyl]-2-quinoxalinyl]ethyl] benzeneacetic acid], the Ki was 0.1 to 2 nM.
For `CC(CCCc1nc2cc(C(=O)NCc3cccc(F)c3)ccc2nc1-c1ccc(F)cc1)C(=O)O` (stereo not drawn) [compound 203, 3-(4-fluorophenyl)-7-[[[(3-fluorophenyl)methyl]amino]carbonyl]-alpha-methyl-2-quinoxalinepentanoic acid], the Ki was 2.1 to 20 nM.
In the case of `CC(CCCc1nc2cc(C(=O)NCc3ccc(F)cc3)ccc2nc1-c1ccc(F)cc1)C(=O)O` (stereo not drawn) [compound 204, 3-(4-fluorophenyl)-7-[[[(4-fluorophenyl)methyl]amino]carbonyl]-alpha-methyl-2-quinoxalinepentanoic acid], the Ki is reported as 2.1 to 20 nM.
`CC(CCCc1nc2cc(C(=O)N3CCC(c4ccccc4)CC3)ccc2nc1-c1ccc(F)cc1)C(=O)O` (stereo not drawn) [compound 205, 3-(4-fluorophenyl)-alpha-methyl-7-[(4-phenyl-1-piperidinyl)carbonyl]-2-quinoxalinepentanoic acid] gave a Ki of 2.1 to 20 nM.
In the case of `CC(CCCc1nc2cc(C(=O)N3CCN(c4ccccc4)CC3)ccc2nc1-c1ccc(F)cc1)C(=O)O` (stereo not drawn) [compound 206, 3-(4-fluorophenyl)-alpha-methyl-7-[(4-phenyl-1-piperazinyl)carbonyl]-2-quinoxalinepentanoic acid], the Ki is reported as 2.1 to 20 nM.
With `CC(CCCc1nc2cc(C(=O)NCc3ccc(C#N)cc3)ccc2nc1-c1ccc(F)cc1)C(=O)O` (stereo not drawn) [compound 207, 7-[[[(4-cyanophenyl)methyl]amino]carbonyl]-3-(4-fluorophenyl)-alpha-methyl-2-quinoxalinepentanoic acid] the Ki was 2.1 to 20 nM.
Molecule `CC(CCCc1nc2cc(C(=O)N3CC(c4ccccc4)C3)ccc2nc1-c1ccc(F)cc1)C(=O)O` (stereo not drawn) [compound 208, 3-(4-fluorophenyl)-alpha-methyl-7-[(3-phenyl-1-azetidinyl)carbonyl]-2-quinoxalinepentanoic acid] has a Ki of 2.1 to 20 nM.
`CC(CCCc1nc2cc(C(=O)N[C@H](C)c3ccc(F)cc3)ccc2nc1-c1ccc(F)cc1)C(=O)O` (stereo partly drawn) [compound 209, 3-(4-fluorophenyl)-7-[[[1(R)-(4-fluorophenyl)ethyl]amino]carbonyl]-alpha-methyl-2-quinoxalinepentanoic acid] gave a Ki of 2.1 to 20 nM.
Molecule `CC(CCCc1nc2cc(C(=O)N[C@@H](C)c3ccc(F)cc3)ccc2nc1-c1ccc(F)cc1)C(=O)O` (stereo partly drawn) [compound 210, 3-(4-fluorophenyl)-7-[[[1(S)-(4-fluorophenyl)ethyl]amino]carbonyl]-alpha-methyl-2-quinoxalinepentanoic acid] has a Ki of 2.1 to 20 nM.

Same assay, conditions: [3H]PGD2 binding, values in text
Molecule `C[C@@H](NC(=O)c1ccc2nc(-c3ccc(Cl)cc3)c(CCCCC(=O)O)nc2c1)c1cccc(Cl)c1` [compound 180, 3-(4-chlorophenyl)-7-[[[1(R)-(3-chlorophenyl)ethyl]amino]carbonyl]-2-quinoxalinepentanoic acid] has a Ki of 0.6 nM.
`O=C(O)Cc1cccc(CCc2nc3cc(C(=O)NCc4ccc(F)cc4)ccc3nc2-c2ccc(F)cc2)c1` [compound 193, 3-[2-[3-(4-fluorophenyl)-7-[[[(4-fluorophenyl)methyl]amino]carbonyl]-2-quinoxalinyl]ethyl] benzeneacetic acid] gave a Ki of 14.6 nM.
With `O=C(O)Cc1cccc(CCc2nc3cc(C(=O)N[C@@H](CCO)c4ccccc4)ccc3nc2-c2ccc(F)cc2)c1` [compound 197, 3-[2-[3-(4-fluorophenyl)-7-[[(3-hydroxy-1(S)-phenylpropyl)amino]carbonyl]-2-quinoxalinyl]ethyl] benzeneacetic acid] the Ki was 464 nM.
